Reference: ChEMBL document CHEMBL1201862, “PubChem BioAssay data set” (2004)
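1) Cells in 96-well plates. 2) Compound, 48 h, 5 concentrations. 3) Linear interpolation between surrounding doses. 4) Unreached endpoint = highest concentration. At the GI50, growth is halved.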 Calls of active or inactive are those of the source. No stated cut-off is given here; in the data, active = GI50 up to about 1.1 µM and inactive = higher.

Tests used:
Experiment in all cases: NCI-60 cell line screen, 48 h
SK-OV-3 = system: SK-OV-3
MDA-N = system: MDA-N
TK-10 = system: TK-10
786-0 = system: 786-0
ACHN = system: ACHN
HL-60 = system: HL-60
OVCAR-5 = system: OVCAR-5
UACC-257 = system: UACC-257
SN12C = system: SN12C
MOLT-4 = system: MOLT-4
HCC 2998 = system: HCC 2998
SF-539 = system: SF-539
NCI-H23 = system: NCI-H23
NCI-H460 = system: NCI-H460
CAKI-1 = system: CAKI-1
NCI-H522 = system: NCI-H522
COLO 205 = system: COLO 205
BT-549 = system: BT-549
Hs-578T = system: Hs-578T
NCI-H226 = system: NCI-H226

Structure (SMILES)	GI50 (SK-OV-3)	GI50 (MDA-N)	GI50 (TK-10)	GI50 (786-0)	GI50 (ACHN)	GI50 (HL-60)	GI50 (OVCAR-5)	GI50 (UACC-257)	GI50 (SN12C)	GI50 (MOLT-4)	GI50 (HCC 2998)	GI50 (SF-539)	GI50 (NCI-H23)	GI50 (NCI-H460)	GI50 (CAKI-1)	GI50 (NCI-H522)	GI50 (COLO 205)	GI50 (BT-549)	GI50 (Hs-578T)	GI50 (NCI-H226)
CC(=O)Nc1ccc2nc(-c3cccc(F)c3)cc(O)c2c1	5.09 µM (inactive)	2.28 µM (inactive)	> 100 µM (inactive)	10.6 µM (inactive)	> 83.9 µM (inactive)	5.06 µM (inactive)	> 52.8 µM (inactive)	> 100 µM (inactive)	15.9 µM (inactive)	2.56 µM (inactive)	6.4 µM (inactive)	1.41 µM (inactive)	16.6 µM (inactive)	16.4 µM (inactive)	14.5 µM (inactive)	1.95 µM (inactive)	11.2 µM (inactive)	4.04 µM (inactive)	3.74 µM (inactive)	
c1ccc2c[n+](CCCCCCCCCC[n+]3ccc4ccccc4c3)ccc2c1	> 10 µM (inactive)	> 10 µM (inactive)	> 10 µM (inactive)	> 10 µM (inactive)	> 10 µM (inactive)	> 10 µM (inactive)	> 5.09 µM (inactive)	3.48 µM (inactive)	0.92 µM (active)		> 10 µM (inactive)	> 10 µM (inactive)	1 µM (active)	> 10 µM (inactive)	> 10 µM (inactive)	4.17 µM (inactive)	4.76 µM (inactive)	2.11 µM (inactive)	9.91 µM (inactive)	> 3.34 µM (inactive)
COC(=O)C12OCC34C(CC5C(C)=C(O)C(=O)CC5(C)C3C(O)C1O)OC(=O)C(OC(=O)C=C(C)C)C24 (stereo not drawn)	> 500 µM (inactive)	< 0.215 µM (active)	< 0.215 µM (active)	0.275 µM (active)	0.247 µM (active)	498 µM (inactive)	> 500 µM (inactive)	423 µM (inactive)	> 500 µM (inactive)	297 µM (inactive)	453 µM (inactive)	> 500 µM (inactive)	> 469 µM (inactive)	161 µM (inactive)	> 500 µM (inactive)	301 µM (inactive)	> 500 µM (inactive)	0.26 µM (active)	< 0.215 µM (active)	436 µM (inactive)
